# “And” between values parts separate entries of the source, which are not always exact repeats. Equal values may be shown once. Toxic doses and inconclusive results are not listed.
# Test system: CD2F1 mice, L1210 leukemia ip, survival T/C
# Assay: NCI In Vivo Anticancer Drug Screen. Data for tumor model L1210 Leukemia (intraperitoneal) in CD2F1 (CDF1) mice
# Conditions: higher = longer survival
# In short: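 In this screen, transplantable tumors were grown in mice given either the compound or its vehicle. Results were expressed as the treated measurement relative to the control measurement.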
# [1] = endpoint: mean survival time, dose: 50.0 mg/kg/injection, schedule: Q01DX009 (ip), vehicle: saline with Tween-80
# [2] = endpoint: mean survival time, dose: 100.0 mg/kg/injection, schedule: Q01DX009 (ip), vehicle: saline with Tween-80
# [3] = endpoint: mean survival time, dose: 200.0 mg/kg/injection, schedule: Q01DX009 (ip), vehicle: saline with Tween-80
# [4] = endpoint: mean survival time, dose: 100.0 mg/kg/injection, schedule: Q04DX002 (ip), vehicle: saline with Tween-80
# [5] = endpoint: mean survival time, dose: 100.0 mg/kg/injection, schedule: Q04DX003 (ip), vehicle: saline with Tween-80
# [6] = endpoint: mean survival time, dose: 200.0 mg/kg/injection, schedule: Q04DX003 (ip), vehicle: saline with Tween-80
# [7] = endpoint: mean survival time, dose: 400.0 mg/kg/injection, schedule: Q04DX003 (ip), vehicle: saline with Tween-80
# [8] = endpoint: mean survival time, dose: 400.0 mg/kg/injection, schedule: Q01DX009 (ip), vehicle: saline with Tween-80
structure (smiles),measurement,setting,value
CCCCCCCCCc1nc(N)nc(NCCCC)n1,T/C,"endpoint: mean survival time, dose: 25.0 mg/kg/injection, schedule: Q01DX009 (ip), vehicle: Klucel (hydroxypropylcellulose) (HPC)",101 % of control
same,T/C,"endpoint: mean survival time, dose: 50.0 mg/kg/injection, schedule: Q01DX009 (ip), vehicle: Klucel (hydroxypropylcellulose) (HPC)",112 % of control
same,T/C,"endpoint: mean survival time, dose: 100.0 mg/kg/injection, schedule: Q01DX009 (ip), vehicle: Klucel (hydroxypropylcellulose) (HPC)",108 % of control
O=C(Nc1cccc(F)c1)c1c(O)[nH]c(=S)[nH]c1=O,T/C,"endpoint: median survival time, dose: 25.0 mg/kg/injection, schedule: Q01DX009 (ip), vehicle: saline with Tween-80",114 % of control and 106 % of control
same,T/C,"endpoint: median survival time, dose: 50.0 mg/kg/injection, schedule: Q01DX009 (ip), vehicle: saline with Tween-80",113 % of control and 114 % of control
same,T/C,"endpoint: median survival time, dose: 100.0 mg/kg/injection, schedule: Q01DX009 (ip), vehicle: saline with Tween-80",117 % of control
same,T/C,"endpoint: median survival time, dose: 200.0 mg/kg/injection, schedule: Q01DX009 (ip), vehicle: saline with Tween-80",155 % of control
O=CNNC(=S)Nc1ccccc1,T/C,[1],100 % of control
same,T/C,[2],96 % of control
same,T/C,[3],96 % of control
CN(C)C(=S)Oc1c([N+](=O)[O-])cc([N+](=O)[O-])cc1C(C)(C)C,T/C,[4],91 % of control
O=C(OC1(c2ccccc2)C2C=CC1CC2)c1ccc([N+](=O)[O-])cc1 (stereo unspecified),T/C,"endpoint: mean survival time, dose: 50.0 mg/kg/injection, schedule: Q04DX002 (ip), vehicle: saline with Tween-80",102 % of control
same,T/C,[4],98 % of control
same,T/C,"endpoint: mean survival time, dose: 200.0 mg/kg/injection, schedule: Q04DX002 (ip), vehicle: saline with Tween-80",95 % of control
O=S(=O)(NC1CCc2ccccc21)c1ccccc1 (stereo unspecified),T/C,[5],98 % of control
same,T/C,[6],97 % of control
same,T/C,[7],98 % of control
Cc1c(Cc2ccccc2)[n+](=O)c2ccccc2n1[O-],T/C,[5],97 % of control
same,T/C,[6],101 % of control
same,T/C,[7],98 % of control
C=CC/C(C)=C/C=C/C(C)C(=O)O (stereo unspecified),T/C,[2],100 % of control
same,T/C,[5],98 % of control
same,T/C,[3],94 % of control
same,T/C,[6],93 % of control
same,T/C,[8],104 % of control
same,T/C,[7],95 % of control
CC(C)(C)/C=C\C=C\C(C)(C)C,T/C,[1],100 % of control
same,T/C,[2],103 % of control
same,T/C,[3],92 % of control
Cn1nc(NC=O)c(C#N)c1C#N,T/C,"endpoint: mean survival time, dose: 37.5 mg/kg/injection, schedule: Q04DX002 (ip), vehicle: saline with Tween-80",102 % of control
same,T/C,"endpoint: mean survival time, dose: 75.0 mg/kg/injection, schedule: Q04DX002 (ip), vehicle: saline with Tween-80",102 % of control
same,T/C,"endpoint: mean survival time, dose: 150.0 mg/kg/injection, schedule: Q04DX002 (ip), vehicle: saline with Tween-80",98 % of control
Cc1cc(-c2nnc(-c3ccc(O)c(C)c3)nn2)ccc1O,T/C,[5],97 % of control
same,T/C,[6],89 % of control
same,T/C,[7],92 % of control
CCOC(=O)Nc1cc(Cl)c2nnn(C3OC(CO)C(O)C3O)c2n1 (stereo unspecified),T/C,"endpoint: mean survival time, dose: 12.5 mg/kg/injection, schedule: Q01DX005 (ip), vehicle: water",90 % of control
same,T/C,"endpoint: mean survival time, dose: 25.0 mg/kg/injection, schedule: Q01DX005 (ip), vehicle: water",94 % of control
same,T/C,"endpoint: mean survival time, dose: 50.0 mg/kg/injection, schedule: Q01DX005 (ip), vehicle: water",86 % of control
same,T/C,"endpoint: mean survival time, dose: 100.0 mg/kg/injection, schedule: Q01DX005 (ip), vehicle: water",96 % of control
same,T/C,"endpoint: mean survival time, dose: 200.0 mg/kg/injection, schedule: Q01DX005 (ip), vehicle: water",90 % of control
CCCCCCCC(=O)Nc1ccc(CC)cc1,T/C,[2],107 % of control
same,T/C,[5],95 % of control
same,T/C,[3],105 % of control
same,T/C,[6],103 % of control
same,T/C,[8],107 % of control
same,T/C,[7],93 % of control
CCCCOC(=O)c1ccc(NC(=O)Nc2ccccc2OC)cc1,T/C,[2],97 % of control
same,T/C,[5],108 % of control
same,T/C,[3],91 % of control
same,T/C,[6],103 % of control
same,T/C,[8],92 % of control
same,T/C,[7],88 % of control
NC(CSC1c2ccccc2-c2ccccc21)C(=O)O (stereo unspecified),T/C,"endpoint: mean survival time, dose: 25.0 mg/kg/injection, schedule: Q01DX009 (ip), vehicle: saline",102 % of control
same,T/C,"endpoint: mean survival time, dose: 50.0 mg/kg/injection, schedule: Q01DX009 (ip), vehicle: saline",103 % of control
same,T/C,"endpoint: mean survival time, dose: 100.0 mg/kg/injection, schedule: Q01DX009 (ip), vehicle: saline",102 % of control
same,T/C,"endpoint: mean survival time, dose: 200.0 mg/kg/injection, schedule: Q01DX009 (ip), vehicle: saline",96 % of control
same,T/C,"endpoint: mean survival time, dose: 400.0 mg/kg/injection, schedule: Q01DX009 (ip), vehicle: saline",103 % of control
O=C(O)/C=N/NS(=O)(=O)c1ccc(Cl)cc1,T/C,"endpoint: mean survival time, dose: 12.5 mg/kg/injection, schedule: Q04DX003 (ip), vehicle: other",97 % of control
same,T/C,"endpoint: mean survival time, dose: 25.0 mg/kg/injection, schedule: Q04DX003 (ip), vehicle: other",105 % of control
same,T/C,"endpoint: mean survival time, dose: 50.0 mg/kg/injection, schedule: Q04DX003 (ip), vehicle: other",118 % of control and 122 % of control
same,T/C,"endpoint: mean survival time, dose: 200.0 mg/kg/injection, schedule: Q04DX003 (ip), vehicle: other",174 % of control
O=C(/C=C/c1ccccc1)N1CCCCC1,T/C,[5],98 % of control
same,T/C,[6],89 % of control
same,T/C,[7],94 % of control
ClCCCCOCCCCCl,T/C,[2],95 % of control
same,T/C,[5],97 % of control
same,T/C,[3],95 % of control
same,T/C,[6],95 % of control
same,T/C,[8],117 % of control
same,T/C,[7],97 % of control
O=C(COc1ccccc1)Nc1ccc([N+](=O)[O-])cc1,T/C,[5],100 % of control
same,T/C,[6],99 % of control
same,T/C,[7],100 % of control
CCOc1cc(/C=N/NC(=O)C(O)c2ccccc2)ccc1O (stereo unspecified),T/C,[2],95 % of control
same,T/C,[3],103 % of control
same,T/C,[8],101 % of control
CCCCN(Cc1ccccc1)CC(O)C[NH-].CS(C)=O.[Cl-].[Cl-].[Pt+4] (stereo unspecified),T/C,"endpoint: median survival time, dose: 10.0 mg/kg/injection, schedule: Q04DX003 (ip), vehicle: saline",100 % of control
same,T/C,"endpoint: median survival time, dose: 20.0 mg/kg/injection, schedule: Q04DX003 (ip), vehicle: saline",110 % of control
same,T/C,"endpoint: median survival time, dose: 40.0 mg/kg/injection, schedule: Q04DX003 (ip), vehicle: saline",108 % of control
same,T/C,"endpoint: median survival time, dose: 50.0 mg/kg/injection, schedule: Q04DX003 (ip), vehicle: saline",103 % of control
same,T/C,"endpoint: median survival time, dose: 80.0 mg/kg/injection, schedule: Q04DX003 (ip), vehicle: saline",109 % of control
Nc1nc2nc[n-]c2c(=O)[nH]1.[NH2-].[NH2-].[NH2-].[NH2-].[NH2-].[Ru+6],T/C,"endpoint: mean survival time, dose: 6.25 mg/kg/injection, schedule: Q04DX003 (ip), vehicle: water",96 % of control
same,T/C,"endpoint: mean survival time, dose: 12.5 mg/kg/injection, schedule: Q04DX003 (ip), vehicle: water",96 % of control
same,T/C,"endpoint: mean survival time, dose: 25.0 mg/kg/injection, schedule: Q04DX003 (ip), vehicle: water",102 % of control
COc1cc2c(cc1O)-c1cc3ccc(OC)c(OC)c3c[n+]1CC2,T/C,"endpoint: mean survival time, dose: 25.0 mg/kg/injection, schedule: Q04DX002 (ip), vehicle: saline",111 % of control
same,T/C,"endpoint: mean survival time, dose: 25.0 mg/kg/injection, schedule: Q04DX003 (ip), vehicle: suspension in saline",94 % of control
same,T/C,"endpoint: mean survival time, dose: 50.0 mg/kg/injection, schedule: Q04DX002 (ip), vehicle: saline",97 % of control
same,T/C,"endpoint: mean survival time, dose: 50.0 mg/kg/injection, schedule: Q04DX003 (ip), vehicle: suspension in saline",90 % of control
same,T/C,"endpoint: mean survival time, dose: 100.0 mg/kg/injection, schedule: Q04DX002 (ip), vehicle: saline",104 % of control
same,T/C,"endpoint: mean survival time, dose: 100.0 mg/kg/injection, schedule: Q04DX003 (ip), vehicle: suspension in saline",102 % of control
same,T/C,"endpoint: mean survival time, dose: 200.0 mg/kg/injection, schedule: Q04DX002 (ip), vehicle: saline",104 % of control
same,T/C,"endpoint: mean survival time, dose: 200.0 mg/kg/injection, schedule: Q04DX003 (ip), vehicle: suspension in saline",109 % of control
CCN(CC)CCN1C(=O)c2cccc3cccc(c23)C1=O,T/C,"endpoint: mean survival time, dose: 25.0 mg/kg/injection, schedule: Q04DX003 (ip), vehicle: saline",102 % of control
same,T/C,"endpoint: mean survival time, dose: 50.0 mg/kg/injection, schedule: Q04DX003 (ip), vehicle: saline",98 % of control
same,T/C,"endpoint: mean survival time, dose: 100.0 mg/kg/injection, schedule: Q04DX003 (ip), vehicle: saline",102 % of control
COc1cccc2c1C(=O)c1c(O)c3c(c(O)c1C2=O)C[C@@](O)(/C(C)=N/NC(=O)c1cccc([N+](=O)[O-])c1)C[C@@H]3OC1CC(N)C(O)C(C)O1 (stereo partly specified),T/C,"endpoint: mean survival time, dose: 2.0 mg/kg/injection, schedule: Q01DX009 (ip), vehicle: water",121 % of control
same,T/C,"endpoint: mean survival time, dose: 4.0 mg/kg/injection, schedule: Q01DX009 (ip), vehicle: water",121 % of control
same,T/C,"endpoint: mean survival time, dose: 16.0 mg/kg/injection, schedule: Q01DX009 (ip), vehicle: water",98 % of control
CCCCCCP(C)(=O)CCCCCC,T/C,"endpoint: mean survival time, dose: 25.0 mg/kg/injection, schedule: Q01DX001 (ip), vehicle: saline with Tween-80",96 % of control
same,T/C,"endpoint: mean survival time, dose: 50.0 mg/kg/injection, schedule: Q01DX001 (ip), vehicle: saline with Tween-80",97 % of control
same,T/C,"endpoint: mean survival time, dose: 100.0 mg/kg/injection, schedule: Q01DX001 (ip), vehicle: saline with Tween-80",100 % of control
